We go through one compound from US20260138965A1, “CRYSTALLINE FORMS OF A TYK2 INHIBITOR AND USES THEREOF” (Alumis Inc., priority 2022, published 2026).

Holding throughout (format): physicochemical
Series [1] is described as follows: Solubility of crystalline Form 1 in organic solvents. The note with it: organic solvent or mixture.
The nature of series [2]: Solubility of crystalline Form 1 in aqueous and biorelevant media.
A short description of series [3]: Solid form chemical and physical stability.

Converted amounts (≈) assume the structure as drawn.

In the case of `[2H]C([2H])([2H])CC(=O)c1cnc(NC(=O)C2CC2)cc1Nc1cccc(-c2ncn(C([2H])([2H])[2H])n2)c1OC` [Form 1, N-(4-((2-methoxy-3-(1-(methyl-d3)-1H-1,2,4-triazol-3-yl)phenyl)amino)-5-(propanoyl-3,3,3-d3)pyridin-2-yl) cyclopropanecarboxamide], the solubility was less than 3000 µg/mL in series [1] (in MeOH); greater than 43000 µg/mL in series [1] (in MeOH/DCM (1/1)); less than 17000 µg/mL in series [1] (in THF); less than 3000 µg/mL in series [1] (in acetone); less than 1000 µg/mL in series [1] (in acetonitrile); less than 1000 µg/mL in series [1] (in ethanol). In addition, the solubility is less than 1000 µg/mL in series [1] (in ethyl acetate); less than 1000 µg/mL in series [1] (in heptane); less than 1000 µg/mL in series [1] (in isopropyl alcohol); less than 1000 µg/mL in series [1] (in methyl t-butyl ether); 1 to 2 µg/mL (≈ 2.34 to 4.69 µM) in series [2] (in FaSSIF); 30 to 50 µg/mL (≈ 70.3 to 117 µM) in series [2] (in FeSSIF). The solubility in series [2] (simulated gastric fluid, in SGF) was 3970 to 4280 µg/mL (≈ 9310 to 10000 µM). For the same compound, the “time chemically and physically stable” value in series [3] (40° C./75% RH) and in series [3] (60° C.) was “at least 10 days” throughout.

In general, solubility refers to how much of the substance goes into solution per volume.
